Patent US10253039B2, “Inhibitors of bacterial DNA gyrase with efficacy against gram-negative bacteria” (priority 2014, dated 2019)
≈ marks a conversion by molar mass, not a printed value. Where two headings read alike, the source gives them in different places.

Experiments:
Type in all cases: cell-based
Streptococcus pyogenes = assay: MIC, 20-strain panel
Method: (§1) A microdilution method in 96-well plates was used and the MIC protocol established by the Clinical Laboratory Standards Institute was followed. From a growing subculture, a 1:10000 inoculum of each strain in Luria-Bertani media was prepared and aliquoted 100 μL in 4 columns of wells, except for the top row wells, which contained 200 μL of inoculum. A solution of gyramide C2 was aliquoted into 3 of the wells containing 200 μL and DMSO was added to the 4th well. The liquid in each of wells was mixed with a multi-channel pipet and 100 μL was transferred to the next well and mixed. The 2-fold dilution was continued down the 96-well plate until 100 μL was left, which was discarded. The plates were incubated at 37° C. with shaking for 16-18 hours. The MIC was determined as the lowest concentration that inhibited growth and had no turbidity by visual inspection.
(§2) Minimum inhibitory concentrations of various gyramide compounds against 20 strains of bacteria were determined using the procedure described above.

E. coli MG1655 = assay: MIC, 20-strain panel; conditions: Escherichia coli, read-out: MIC
Method: as §1, §2

E. coli JW5503 (deltolC) = assay: MIC, 20-strain panel; conditions: Escherichia coli
Method: as §1, §2

[1] = tested on: Salmonella enterica subsp. enterica typhimurium; assay: MIC, 20-strain panel
Method: as §1, §2

[2] = tested on: Staphylococcus saprophyticus subsp. saprophyticus; assay: MIC, 20-strain panel
Method: as §1, §2

Shigella flexneri = assay: MIC, 20-strain panel
Method: as §1, §2

[3] = tested on: Klebsiella pneumoniae subsp. pneumoniae; assay: MIC, 20-strain panel
Method: as §1, §2

Streptococcus agalactiae = assay: MIC, 20-strain panel
Method: as §1, §2

[4] = tested on: Staphylococcus aureus subsp. aureus; assay: MIC, 20-strain panel; conditions: read-out: MIC
Method: as §1, §2

[5] = tested on: Staphylococcus epidermidis; assay: MIC, 20-strain panel
Method: as §1, §2

Edwardsiella tarda = assay: MIC, microdilution in 96-well plates
Method: as §1, §2

E. coli BW25113 = assay: MIC, microdilution in 96-well plates; conditions: Escherichia coli, read-out: MIC
Method: as §1, §2

[6] = F: Salmonella enterica subsp. enterica Typhimurium
[7] = E: Klebsiella pneumoniae subsp. pneumoniae
[8] = H: Staphylococcus aureus subsp. aureus
[9] = Salmonella enterica subsp. enterica Typhimurium
[10] = Klebsiella pneumoniae subsp. pneumoniae
[11] = Staphylococcus aureus subsp. aureus

Row | SMILES | MIC (Streptococcus pyogenes) [µg/mL] | MIC (E. coli MG1655; MG1655, A: E. coli MG1655) [µg/mL] | MIC (E. coli JW5503 (deltolC); C: E. coli JW5503 (deltolC)) [µg/mL] | MIC [1, 6] [µg/mL] | MIC [2] [µg/mL] | MIC (Shigella flexneri; G: Shigella flexneri) [µg/mL] | MIC [3, 7] [µg/mL] | MIC (Streptococcus agalactiae) [µg/mL] | MIC [4, 8] [µg/mL] | MIC [5] [µg/mL] | MIC (Edwardsiella tarda; D: Edwardsiella tarda) [µg/mL] | MIC (E. coli BW25113; BW25113, B: E. coli BW25113) [µg/mL] | MIC (E. coli MG1655; MG1655, E. coli MG1655) [µg/mL] | MIC (E. coli JW5503 (deltolC); E. coli JW5503 (deltolC)) [µg/mL] | MIC [1, 9] [µg/mL] | MIC (Shigella flexneri) [µg/mL] | MIC [3, 10] [µg/mL] | MIC [4, 11] [µg/mL] | MIC (Edwardsiella tarda) [µg/mL] | MIC (E. coli BW25113; BW25113, E. coli BW25113) [µg/mL]
1 | O=S(=O)(N[C@@H]1CCN(Cc2ccc(-c3ccccc3)cc2)C1)c1cnccc1Cl [Compound 122] | > 8 | > 8 | 4 (≈ 9.35 µM) | > 8 | > 8 | > 8 | > 8 | > 8 | > 8 | ~8 (≈ 18.7 µM) | > 8 | > 8 | – | – | – | – | – | – | – | –
2 | N#Cc1cccc(S(=O)(=O)N[C@@H]2CCN(Cc3ccc(-c4cccs4)cc3)C2)c1 [Compound 25] | > 8 | ~8 (≈ 18.9 µM) | 0.25 (≈ 0.59 µM) | 4 (≈ 9.44 µM) | > 8 | > 8 | > 8 | > 8 | > 8 | > 8 | > 8 | ~8 (≈ 18.9 µM) | – | – | – | – | – | – | – | –
3 | Cn1ccc(-c2ccc(CN3CC[C@@H](NS(=O)(=O)c4cccc(C(F)(F)F)c4)C3)cc2)n1 [Compound 171] | > 8 | – | – | – | > 8 | – | – | > 8 | – | > 8 | – | – | > 8 | 1 (≈ 2.15 µM) | > 8 | > 8 | > 8 | > 8 | > 8 | > 8
4 | O=S(=O)(N[C@@H]1CCN(Cc2ccc(OCC(F)F)cc2)C1)c1cccc(OC(F)(F)F)c1 [Compound 89] | > 8 | > 8 | 0.5 (≈ 1.04 µM) | 8 (≈ 16.7 µM) | > 8 | > 8 | > 8 | > 8 | > 8 | > 8 | > 8 | > 8 | – | – | – | – | – | – | – | –
5 | CC(C)Oc1ccc(CN2CC[C@@H](NS(=O)(=O)c3ccc(Cl)cn3)C2)cc1 [Compound 149] | > 8 | – | – | – | > 8 | – | – | > 8 | – | > 8 | – | – | > 8 | > 8 | > 8 | > 8 | > 8 | > 8 | > 8 | > 8
6 | O=S(=O)(N[C@@H]1CCN(Cc2ccc(-c3ccc(Cl)cc3)cc2)C1)c1cccc(OC(F)(F)F)c1 [Compound 103] | ~8 (≈ 15.7 µM) | > 8 | ~8 (≈ 15.7 µM) | > 8 | > 8 | > 8 | > 8 | > 8 | 8 (≈ 15.7 µM) | 8 (≈ 15.7 µM) | > 8 | > 8 | – | – | – | – | – | – | – | –
7 | Cc1nn(C)c2ncc(S(=O)(=O)N[C@@H]3CCN(Cc4ccc(-c5ccccc5)cc4)C3)cc12 [Compound 115] | > 8 | > 8 | > 8 | > 8 | > 8 | > 8 | > 8 | > 8 | > 8 | > 8 | > 8 | > 8 | – | – | – | – | – | – | – | –
8 | O=S(=O)(N[C@@H]1CCN(Cc2ccc(OC3CCC3)cc2)C1)c1cccc(C(F)(F)F)c1 [Compound 5] | > 8 | > 8 | 0.125 (≈ 0.275 µM) | 8 (≈ 17.6 µM) | > 8 | > 8 | > 8 | > 8 | > 8 | > 8 | > 8 | ~8 (≈ 17.6 µM) | – | – | – | – | – | – | – | –
9 | O=S(=O)(N[C@@H]1CCN(Cc2ccn(-c3ccccc3)n2)C1)c1cccc(OC(F)(F)F)c1 [Compound 163] | > 8 | – | – | – | > 8 | – | – | > 8 | – | > 8 | – | – | > 8 | > 8 | > 8 | > 8 | > 8 | > 8 | > 8 | > 8
10 | CC(C)Oc1ccc(CN2CC[C@@H](NS(=O)(=O)c3cc(C#N)ccc3Cl)C2)cc1 [Compound 10] | > 8 | > 8 | 0.25 (≈ 0.576 µM) | 8 (≈ 18.4 µM) | > 8 | > 8 | > 8 | > 8 | > 8 | > 8 | > 8 | > 8 | – | – | – | – | – | – | – | –
11 | O=S(=O)(N[C@@H]1CCN(Cc2ccc(-c3ccccc3)cc2)C1)c1cccc2cccnc12 [Compound 105] | > 8 | > 8 | 0.125 (≈ 0.282 µM) | 8 (≈ 18 µM) | > 8 | > 8 | > 8 | > 8 | > 8 | > 8 | > 8 | > 8 | – | – | – | – | – | – | – | –
12 | O=S(=O)(N[C@@H]1CCN(Cc2ccc(OC3CC3)cc2)C1)c1cc(C(F)(F)F)ccc1F [Compound 168] | > 8 | – | – | – | > 8 | – | – | > 8 | – | > 8 | – | – | > 8 | 0.25 (≈ 0.545 µM) | ~8 (≈ 17.4 µM) | ~8 (≈ 17.4 µM) | > 8 | > 8 | > 8 | > 8
13 | N#Cc1cccc(S(=O)(=O)N[C@@H]2CCN(Cc3ccc(N4CCCC4=O)cc3)C2)c1 [Compound 97] | > 8 | > 8 | 4 (≈ 9.42 µM) | > 8 | > 8 | > 8 | > 8 | > 8 | > 8 | > 8 | > 8 | > 8 | – | – | – | – | – | – | – | –
14 | CC(C)Oc1c(Cl)cc(CN2CC[C@@H](NS(=O)(=O)c3cccc(OC(F)(F)F)c3)C2)cc1Cl [Compound 117] | > 8 | > 8 | > 8 | > 8 | > 8 | > 8 | > 8 | > 8 | > 8 | > 8 | > 8 | > 8 | – | – | – | – | – | – | – | –
15 | O=S(=O)(N[C@@H]1CCN(Cc2ccc(-c3ccccc3)cc2)C1)c1cccc(C(F)(F)F)c1 [Compound 27] | 8 (≈ 17.4 µM) | > 8 | 0.5 (≈ 1.09 µM) | 4 (≈ 8.69 µM) | > 8 | > 8 | > 8 | > 8 | > 8 | 8 (≈ 17.4 µM) | > 8 | > 8 | – | – | – | – | – | – | – | –
